This note sets out measurements from patent publication US20220096515A1, “Methods and Formulations for Preventing Neurological or Psychiatric Disorders” (Huntington Medical Research Institutes, priority 2020, published 2022).

The nature of data set [1]: Litter size and pup growth after prenatal treatment. In kind it is in vivo, mouse. As to conditions: prenatal NAD^+ treatment.
Data set [2] has as its system Gabrb3^ECKO mice. The data set can be described thus: Open field locomotor activity. In kind it is in vivo, mouse. Conditions: 60 minutes; between the three groups. The method, then: Behavioral Experiments: Mice were housed in our animal facility with a 12-hour light cycle with ad libitum access to food and water. Offspring stayed with their mothers until weaning at PND 21 after which males and females were separated. Before all behavioral testing, mice were acclimated to the testing room for 1 hour. Behavioral assays were performed according to established protocols referenced here: self-grooming, light-dark box, tail suspension test, Y-maze, open field locomotion activity, three chamber social interaction test and nest building with nestlets and with shredded paper. Both males and females were used for all behavioral assays. Experimenters scoring behaviors were blinded to the genotypes and treatment. Sample sizes for each assay are noted in figure legends.
Anxiety was next assessed with the classic light-dark transition test which triggers a struggle between the desires to explore a novel environment versus natural aversion of a brightly illuminated open space. […] The Y maze spontaneous alternation test was used to evaluate for spatial learning and memory in the three groups of mice. After introduction to the center of the maze, the mice were given free access to all three arms. […] The total number of arm entries and the sequence of entries are recorded in order to calculate the percentage of alternation. […]

Data set [3] deals with cerebral cortex of Gabrb3^ECKO mice. The data set is described as follows: In vivo multiphoton laser-scanning microscopy of cortical microvasculature. More on the design: species or system mouse. The method, then: In vivo imaging of brain microvasculature by multiphoton laser-scanning microscopy: In vivo imaging of the brain vasculature in cranial window bearing mice was performed as described previously. Briefly, a cranial window was implanted by removing circular area of skull and dura. Then, the window was sealed with a 7 mm cover glass glued to the bone. For the measurement of red blood cell (RBC) velocity and blood vessel diameter, we used multiphoton laser-scanning microscopy (MPLSM). To avoid potential tissue/vessel alteration caused by the window implantation procedure, we performed imaging at least 10 days after cranial window implantation. For imaging, mice were anesthetized with ketamine/xylazine, then tetramethylrhodamine (TAMRA)-dextran (MW 500,000) was administrated through retro-orbital injection. Using TAMRA-dextran contrast enhanced angiography, region of interest is first identified. Since the intravenously injected dye labels only the blood plasma, RBCs appear as dark patches moving within the vessel lumen. Centerline RBC velocity was measured by repetitively scanning a line along the central axis of a single blood vessel (x-t) and enabling the tracking of the motion of these dark patches. The space-time image produced by the line-scan contained diagonal dark streaks formed by moving RBCs, with a slope that was inversely proportional to the centerline RBC velocity. This space-time image was then computationally processed using Matlab and Python to extract the gradient of each streak, corresponding to the RBC velocity. Briefly, diagonal filters of varying gradients were tested for each streak until the gradient that fit best was found. […] The blood flow rate was determined through the following formula: […]
Therefore, vessel diameters, red blood cell (RBC) velocity, and blood flow were evaluated in the cerebral cortex of saline-treated Gabrb3^fl/fl mice, saline-treated Gabrb3^ECKO mice, and NAD^+-treated Gabrb3^ECKO mice (FIGS. 14A-14F) using multiphoton laser-scanning microscopy (MPLSM) and a sophisticated cranial window model. […]

The subject of data set [4] is Gabrb3^ECKO endothelial cells. The data set is described as follows: GABA immunostaining and cluster formation of endothelial cells after prenatal treatment. It counts as in vivo, mouse. As for the experimental part: Primary culture of endothelial cells and endothelial cell staining: Embryonic brains were dissected under a stereo-microscope, after the NAD^+ treatment paradigm and the telencephalon was removed. Pial membranes were peeled off. Telencephalon without pial membranes from the periventricular region was pooled. Purity of endothelial cell cultures was established with endothelial cell markers and determined to be one hundred percent. Isolation and culture of endothelial cells were performed according to published methodology. Periventricular endothelial cells were prepared from CD1 (wild type), saline-treated Gabrb3^fl/fl, saline-treated Gabrb3^ECKO, and NAD^+-treated Gabrb3^ECKO embryos. Endothelial cells were labeled with anti-biotinylated isolectinB4 (1:100, Sigma), anti-GABA (1:400, Sigma), anti-DAXX (1:100, Santa Cruz Biotechnology) and anti-P2X4 (1:100, Abclonal) followed by secondary detection with AlexaFluor conjugates (Invitrogen). DAPI (Invitrogen) was used to label nuclei. Images were taken on an FSX100 microscope (Olympus). 1 million cells were examined for each immunohistochemistry condition.
Endothelial cell derived GABA plays dual roles in the embryonic forebrain. […]

The mark [5] stands for this setting: adult, after prenatal treatment.

For `NC(=O)c1ccc[n+]([C@@H]2O[C@H](COP(=O)([O-])OP(=O)(O)OC[C@H]3O[C@@H](n4cnc5c(N)ncnc54)[C@H](O)[C@@H]3O)[C@@H](O)[C@H]2O)c1` [NAD^+], in data set [1], the growth of pups result is “grew normally to adulthood” and the litter size result is recorded as “did not have any effect on litter size”. Moreover, in data set [2], the “open field locomotor activity” value is “no significant differences”. Further, in data set [3] (setting [5]), the “RBC velocity in capillaries” value is “reversed”; the “diameter of capillaries and collecting venules” value is listed as “morphological alteration was rescued”. Further, in data set [3] (vs saline-treated Gabrb3^ECKO mice), the “blood flow in capillaries and collecting venules” value was “significantly reduced”. In data set [4], the “GABA expression (immunohistochemistry)” value is listed as “GABA expression was also restored” and the “endothelial cell cluster formation” value is listed as “significantly improved cluster formation”.
